Each structure is given as a SMILES string.

For the compound `CC(C)(C)OC(=O)C[C@H](NC(=O)c1cccc(NC(=O)Cc2ccc(C(=N)N)cc2)c1)C(=O)N[C@@H](Cc1ccccc1)C(=O)OC(C)(C)C`, the melting point (usually the temperature, or range, at which the solid turns liquid) stood at 125 °C. Next, `CCC(=O)Nc1ccc(-c2c[nH]c(=O)cn2)cc1`: 270 to 272 °C; `CCOC(=O)C1=C(C)NC(N=CN(C)C)=C(C(=O)OCC)C1c1cccc(Cl)c1` (stereo not drawn): 150 °C. Under `OC1(F)CC(c2ccccc2)=Nc2ccccc21` (stereo not drawn) stands 298 to 302 °C. In turn, `N#Cc1ccc(COC2COc3nc([N+](=O)[O-])cn3C2)cc1` (stereo not drawn) registered a melting point of 166 to 167 °C. As to `O=C(NCc1ccc(Cl)cc1)c1cn2c(CO)cc3cccc(c1=O)c32`, the melting point lay in the range of 211 to 213 °C. Consider `CC12CCC(C1)C1(C)Oc3ccc(Br)cc3C21C` (stereo not drawn), for which the melting point worked out at 120 °C. Turning to `CN(C)S(=O)(=O)Oc1cccc2c1S(=O)(=O)N=C2C1=C(O)C(C(C)(C)C)N(Cc2ccc(F)cc2)C1=O` (stereo not drawn), the melting point was in the range of 116 to 126 °C. As for `COc1ccc2c(c1)c1c(n2CCc2noc(-c3ccccc3)n2)CCN(C)C1`, the melting point fell in the range of 77.5 to 79 °C. Next, `CN1Cc2c(-c3noc(CCl)n3)ncn2-c2cccc(Cl)c2C1=O`: 208 to 210 °C; `Cc1ccc2c(c1)C=Cc1cc(C)ccc1C2c1cn(Cc2nc(C(=O)O)cs2)c(=O)[nH]c1=S`: 200 to 205 °C; `COc1ccc(CCC(=O)O)cc1OCCCc1cn(-c2ccc(C(F)(F)F)cn2)nc1C(C)C`: 93 to 94 °C. `C=CCNc1nc(Cl)nc2c1ncn2CC=C`: the melting point was 110 to 112 °C. In turn, `O=C(CO)NNc1ccnc2c(NC(=O)c3c(Cl)cccc3Cl)cccc12` came in with a melting point of 248 to 250 °C. Compound `Cc1nc(N2CCc3ccccc3CC2)c(C#N)c(=O)[nH]1` gave a melting point of over 200 °C. Take `CC(C)C1(C)N=C(c2nc3sccc3cc2C(=O)O)NC1=O` (stereo not drawn): the melting point is 221 to 223 °C.

Regarding `CN1CC[C@@H](c2c(O)cc(O)c3c(=O)cc(-c4cc(F)ccc4Br)oc23)[C@@H]1CO`, the melting point was 145 to 147 °C.

Compound `CN(C)C(=O)C1(NS(=O)(=O)c2ccc3c(Cl)cnc(NC(=N)N)c3c2)CCCC1` registered a melting point of 264 to 268 °C. As for `CCCc1c(OCCCOc2ccc3c(c2)CCC(CC(=O)OC)C3=O)ccc(C(C)=O)c1O` (stereo not drawn), the melting point was in the range of 96 to 98 °C. Regarding `CN(C)CCc1ccc(O)c2c1=NS(=O)(=O)N=2`, the melting point lay within 202 to 205 °C.

As to `Cc1cc(CN2C(=O)C3(COc4cc5c(cc43)OCO5)c3ccccc32)c(C)n1C(C)C` (stereo not drawn), the melting point was 169 to 171 °C.

`COc1cncnc1-c1ssc(=S)c1C` yielded a melting point of 136 °C. Compound `COc1cc(C(=O)NS(=O)(=O)c2ccccc2C)ccc1Cn1ccc2ccc(CC(=O)NCC3CCCC3)cc21` had a melting point of 187 to 188 °C.

On to `COc1ccc(N2CCN(c3ccc(NC(N)=S)cc3)CC2)cc1`, for which the melting point came to 265 °C. On to `N#Cc1cc(-c2c3ccccc3cc3sc4ccccc4c23)ccc1O`, for which the melting point lay in the range of 231 to 232 °C. The compound `Nc1cc(OCC(O)CO)ccc1[N+](=O)[O-]` (stereo not drawn) displayed a melting point of 139 °C. `Nc1ccc(CN2C(=O)[C@H]3CCC[C@H]3N(C(=O)CN3C(=O)c4ccccc4C3=O)c3ccccc32)cc1` (relative stereo) gave a melting point of 286 to 289 °C. Compound `CC(C)Cc1nc2ccc(OC(C)(C)C)cc2c(-c2ccccc2F)c1C#N` came in with a melting point of 127 to 129 °C. `O=C(O)c1cn(-c2cc(F)cc(C(F)(F)F)c2)cn1` registered a melting point of over 250 °C. The compound `Nc1c(Cl)ccc(Br)c1F` registered a melting point of 61 to 62 °C.

Regarding `c1ccc(-c2nc3cnccc3o2)cc1`, the melting point was in the range of 118 to 121 °C.

For the compound `COc1ccc(C(OCC2OC(n3cnc4c(N)nc(F)nc43)CC2O)(c2ccccc2)c2ccc(OC)cc2)cc1` (stereo not drawn), the melting point is 239 to 243 °C. `CCOC(=O)[C@H]1CC(OS(=O)(=O)c2ccc(C)cc2)CN1S(=O)(=O)c1ccc(C)cc1` (stereo partly drawn): the melting point turned out to be 93 °C. Compound `Cc1ccccc1-c1c(C(C)n2cnc3c(N)ncnc32)oc2ccccc2c1=O` (stereo not drawn) showed a melting point of 202 to 205 °C. In turn, `CC(Cl)=CCC1CCC2C(C=CC3=CCCc4c3n2c2ccncc42)C1` (stereo not drawn) displayed a melting point of 130 to 132 °C.

Regarding `N#Cc1ccc(CN2CCN(c3ccncc3)CC2)cc1`, the melting point fell in the range of 137 to 138 °C. For `CCCCCCCCCCCCOc1ccc(C(=O)OC)cc1`, the melting point is 56 to 57 °C. Under `NS(=O)(=O)c1cc(C(=O)O)cc([N+](=O)[O-])c1-c1ccccc1` stands 119 to 121 °C; under `CCc1cc(-c2c3ccccc3cc3oc(C)c(C)c23)cc(CC)c1OS(=O)(=O)c1ccc(C(=O)O)c(O)c1`, 222 to 227 °C; under `CCOC(=O)c1cn(Cc2ccccc2)nc1NC(=O)NCc1ccccc1`, 82 to 83 °C. `Cc1ccc2cccc(OCc3c(Cl)ccc(C4OCCO4)c3Cl)c2n1` yielded a melting point of 82 to 85 °C. Under `CNC(=O)C(C)Oc1ncn(-c2cccc(Cl)c2)n1` (stereo not drawn) stands 120 to 122 °C; under `CN(C)S(=O)(=O)N1CCNC1=O`, 129 °C.

As for `CCCCc1ncc(/C=C(\Cc2cccs2)C(N)=O)n1Cc1ccc(C(N)=O)cc1`, the melting point was in the range of 204 to 206 °C. Under `Cc1c(Cc2ccc(Cl)cc2)cccc1[N+](=O)[O-]` stands 84 to 85 °C; under `COc1ccc(Cn2cnc(=O)c3[nH]c(C(C)C)nc32)cc1OCc1ccccc1`, 233 to 235 °C; under `CN(C)CC=Cc1ccc2c(c1)CCN2C(=O)c1ccc(-c2ccccc2)cc1`, 174 to 176 °C. `CC1Cn2c(=O)[nH]c3cccc(c32)CN1Cc1ccccc1` (stereo not drawn) showed a melting point of 205 °C. On to `COCC(=O)Nc1c(C(O)(C(F)(F)F)C(F)(F)F)ccc2ccccc12`, for which the melting point lay within 120 to 121 °C. In the case of `CCCCCCCCC(SCCCCCC)C(=O)Nc1c(SC)nc(C)nc1SC` (stereo not drawn), the melting point was in the range of 95 to 97.5 °C. Under `BrCc1cc(-c2ccccc2)no1` stands 87 °C; under `CC(C)C(C)(N)C(N)=O` (single isomer, unassigned; (+)), 74.5 to 76 °C.

As to `CC(C)CCN1C(=O)C2(COc3cc4c(cc32)OCCO4)c2c1ccc1ncsc21` (stereo not drawn), the melting point lay in the range of 169 to 171 °C.

`CON=C(C(=O)O)c1csc(NC(=O)OCC(Cl)(Cl)Cl)n1` yielded a melting point of 162 to 163 °C. Next, `CC1(C2CC2)NC(=O)Nc2ccc(-c3cccc(Cl)c3)cc21` (stereo not drawn): 125 to 127 °C. As to `CON=C1CCCc2cc(C(=O)OC)c(C)nc21`, the melting point fell in the range of 124 to 125 °C. `Nc1c(Br)cc(-c2nc3ccccc3s2)cc1Br` yielded a melting point of 201 to 203 °C. `COc1cnc(CS(C)(=O)=O)nc1O` showed a melting point of 230 °C. `C=CCOc1ccc(C(O)CN2CCN(C(c3ccccc3)c3ccccc3)CC2)cc1` (stereo not drawn): the melting point is 100 °C. `Cc1ccc(S(=O)(=O)NC(CC(N)=O)C(=O)O)cc1` (stereo not drawn) gave a melting point of 198 to 200 °C.

`C#Cc1cc2c(cc1C=O)C(C)(C)CCC2(C)C` yielded a melting point of 94 to 94.6 °C.

As to `CCCNc1nc(=O)n(C2CC(N=[N+]=[N-])C(COC(C)=O)O2)cc1C` (stereo not drawn), the melting point fell in the range of 138 to 140 °C. Under `COC1CCN(S(=O)(=O)c2ccc(S(N)(=O)=O)c(Cl)c2)CC1` stands 165 to 167 °C; under `CCOCc1nc2c(N)nc3c(c2n1NCCCNC(C)=O)CCCC3`, 198 to 200 °C; under `CC(=O)OCC(=O)Nc1nc(CN2CCC(c3c[nH]c4ccccc34)CC2)cs1`, 140 to 144 °C.

`Cc1nc(-c2ccc(F)cc2)c(-c2ccc(S(C)(=O)=O)cc2)s1` came in with a melting point of 229 to 233 °C. Turning to `CCOC(=O)c1ncn2c1Cn1ccnc1-c1sccc1-2`, the melting point was in the range of 203 to 204 °C.

In the case of `O=C(c1ccc(N2CCCC2)cc1)C1CCN(Cc2ccccc2)CC1`, the melting point fell in the range of 154 to 156 °C. `CCOC(=O)C1(n2cc(Cl)cc2C(=O)C(Cl)(Cl)Cl)CC(=O)NC1=O` (stereo not drawn) had a melting point of 182 to 185 °C. In the case of `CC1SC(=O)NN=C1c1ccc2c(c1)C(=NNc1ccc(C(C)(C)C)cc1)C(=O)N2` (stereo not drawn), the melting point was 299 °C. In the case of `O=C(O)Cc1ccc(OCCCN2CCC(c3cn(CC4CC4)c4ccccc34)CC2)cc1`, the melting point lay within 83 to 85 °C.

In the case of `COC(=O)c1ccc(OC(F)(F)F)c(O)c1`, the melting point lay in the range of 95 to 97 °C. In the case of `C=CCOc1cc(C(=O)O)cc(N)c1C(=O)c1ccccc1`, the melting point fell in the range of 206 to 208 °C.

For the compound `FC(F)(F)c1cccc(-c2cc(Cl)n3nccc3n2)c1`, the melting point was 137 to 139 °C.

`COc1ccc(-c2cc3cc(OC)cc(C(=O)O)c3o2)cc1` returned a melting point of 218 to 220 °C. `O=C(Nc1c(C(O)(C(F)(F)F)C(F)(F)F)ccc2ccccc12)c1ccc(C(F)(F)F)cc1` gave a melting point of 191 to 192 °C. Compound `OC[C@H](O)COc1nc(Oc2ccc(F)cc2F)nc2[nH]nc(-c3ccccc3Cl)c12` displayed a melting point of 179 to 181 °C. Next, `COc1ccc(CC2CCN(C(=O)C(=O)Nc3ccc4c(c3)CC(=O)N4)CC2)cc1`: 215 to 217 °C; `CC12CCC(C1)C(C)(C)C2(S)CC#N` (stereo not drawn): 170 to 171 °C. Under `CN(C)CCNc1ccc(NCCCCN)c2c1C(=O)c1ccccc1C2=O` stands 88 to 90 °C; under `CCCc1c(OCc2ccc(C(=O)O)c(Br)c2)ccc(C(C)=O)c1O`, 80 to 83 °C. The compound `Cc1c(C)c2c(c(C)c1O)CC(CCO)O2` (racemic) came in with a melting point of 123 to 125 °C. As for `O=C1N(Cc2ncccc2C(F)(F)F)c2ccccc2C12COc1cc3c(cc12)OC(F)(F)O3` (stereo not drawn), the melting point was in the range of 200 to 201 °C. Consider `COc1ccc(C2CNCCc3c2cc(OC)c(OC)c3Cl)cc1` (stereo not drawn), for which the melting point fell in the range of 139 to 142 °C. As for `CC(=O)OC1OC(CF)C(OC(C)=O)C1OC(C)=O` (stereo not drawn), the melting point was in the range of 98 to 101 °C. In turn, `CN(C(CCn1c(=O)[nH]c2ccccc2c1=O)C(=O)NO)S(=O)(=O)c1ccc(Oc2cccc(Cl)c2)cc1` (stereo not drawn) yielded a melting point of 137 to 140 °C. Regarding `CCOc1ccc(S(=O)(=O)N2CCN(C)CC2)cc1C(=O)OC`, the melting point fell in the range of 110 to 111 °C. Next, `Cc1ccc(CC(=O)O)c(OCc2ccc(OCc3nc(-c4ccccc4)oc3C)cc2)n1`: 138 to 139 °C.

Values taken from a melting point compilation (Tetko et al.; mined from patent text by program, amines drawn as free bases though some values may be those of a salt).
